Measurements taken from US11981954B2, “Compositions and methods for rapid identification and phenotypic antimicrobial susceptibility testing of bacteria and fungi” (priority 2019, dated 2024).

What was measured:
Conditions in all cases: interpreted according to CLSI M100 ED 30, confirmed by PCR ID/AST after 4 h incubation, 5E5 CFU/mL
[1] = test system: E. faecium strain 18483; assay: PCR-based rapid ID/AST and CLSI susceptibility interpretation, E. faecium strain 18483; type: cell-based, Enterococcus faecium
Experimental: (§1) • a. Prepare antimicrobial (Abx) Plate ahead of time and store at […] until needed • i. Diluent—Cation Adjusted Mueller Hinton Broth (CAMHB) • ii. Final Vol—50 ul/well • iii. Remove from −80 C and let thaw at 30 min/Room Temp prior to use
(§2) • b. Overnight cultures in CAMHB—37 C/16-18 hrs/500 rpm • i. 10 ul glycerol stock+490 ul CAMHB in 2 mL 96-well Deep Well Plate • c. Normalize cultures to 1.00E+06 CFU/mL by Optical Density (OD) • d. Prepare Test Plate by adding 50 ul normalized test isolate to appropriate wells of Abx Plate as outlined
(§3) • e. Incubate Test Plate at 37 C/4 hrs/no shaking • f. Prepare PCR Reagents according to TABLE XXIX • g. Add 45 ul Master Mix to each well of a PCR Assay Plate • h. Following incubation, stamp 5 ul/well of Test Plate to PCR Assay Plate • i. Final Vol—50 ul/well • i. For Test Plate, continue incubating at 37 C/12-16 hrs/no shaking to determine reference method Minimum Inhibitory Concentration (MIC) • j. Load PCR Assay Plate to cobas z 480 instrument and run under conditions of TABLE XXX. • k. Following incubation read Test Plate for MIC and determine phenotypic Susceptible/Intermediate/Resistant interpretation. […]

[2] = test system: E. faecium strain 18446; assay: PCR-based rapid ID/AST and CLSI susceptibility interpretation, E. faecium strain 18446; type: cell-based, Enterococcus faecium
Experimental: as §1, §2, §3

[3] = test system: S. aureus strain 16405; assay: PCR-based rapid ID/AST and CLSI susceptibility interpretation, S. aureus strain 16405; type: cell-based, Staphylococcus aureus
Experimental: as §1, §2
(§4) • e. Incubate Test Plate at 37 C/4 hrs/no shaking • f. Prepare PCR Reagents according to TABLE XXIX • g. Add 45 ul Master Mix to each well of a PCR Assay Plate • h. Following incubation, stamp 5 ul/well of Test Plate to PCR Assay Plate • i. Final Vol—50 ul/well • i. For Test Plate, continue incubating at 37 C/12-16 hrs/no shaking to determine reference method Minimum Inhibitory Concentration (MIC) • j. Load PCR Assay Plate to cobas z 480 instrument and run under conditions of TABLE XXX. • k. Following incubation read Test Plate for MIC and determine phenotypic Susceptible/Intermediate/Resistant interpretation.
(§5) Rapid Identification and phenotypic antimicrobial susceptibility testing of Staphylococcus aureus utilizing three distinct target genes (gyrB, ddlA, tuf) and one class of antibacterial agent, cefoxitin (cephalosporin) was performed. […]

[4] = test system: S. aureus strain 15509; assay: PCR-based rapid ID/AST and CLSI susceptibility interpretation, S. aureus strain 15509; type: cell-based, Staphylococcus aureus
Experimental: as §1, §2, §4, §5

[5] = test system: P. aeruginosa strain 16657; assay: PCR-based rapid ID/AST and CLSI susceptibility interpretation, P. aeruginosa strain 16657; type: cell-based, Pseudomonas aeruginosa
Experimental: as §1, §2, §4
(§6) The primer/probe sets used were as follows. […]

[6] = test system: K. pneumoniae strain 16565; assay: PCR-based rapid ID/AST and CLSI susceptibility interpretation, K. pneumoniae strain 16565; type: cell-based, Klebsiella pneumoniae
Experimental: as §1, §2, §4, §6
(§7) The percentages on the Y-axis depicted as “Fold Change Abx level 1” were determined using the calculation 2^-(Abx_Level_1_Ct−Reference_Ct) or 2^-([…]Ct).

[7] = test system: A. baumannii strain 16421; assay: PCR-based rapid ID/AST and CLSI susceptibility interpretation, A. baumannii strain 16421; type: cell-based, Acinetobacter baumannii
Experimental: as §1, §2, §4, §6

[8] = test system: A. baumannii strain 17694; assay: PCR-based rapid ID/AST and CLSI susceptibility interpretation, A. baumannii strain 17694; type: cell-based, Acinetobacter baumannii
Experimental: as §1, §2, §4, §6

[9] = test system: K. pneumoniae strain 0143; assay: PCR-based rapid ID/AST and CLSI susceptibility interpretation, K. pneumoniae strain 0143; type: cell-based, Klebsiella pneumoniae
Experimental: as §1, §2, §4, §6, §7

[10] = test system: P. aeruginosa strain 17816; assay: PCR-based rapid ID/AST and CLSI susceptibility interpretation, P. aeruginosa strain 17816; type: cell-based, Pseudomonas aeruginosa
Experimental: as §1, §2, §4, §6

| Molecule | antimicrobial susceptibility of the strain to the given antimicrobial [1] | antimicrobial susceptibility of the strain to the given antimicrobial [2] | antimicrobial susceptibility of the strain to the given antimicrobial [3] | antimicrobial susceptibility of the strain to the given antimicrobial [4] | antimicrobial susceptibility of the strain to the given antimicrobial [5] | antimicrobial susceptibility of the strain to the given antimicrobial [6] | antimicrobial susceptibility of the strain to the given antimicrobial [7] | antimicrobial susceptibility of the strain to the given antimicrobial [8] | antimicrobial susceptibility of the strain to the given antimicrobial [9] | antimicrobial susceptibility of the strain to the given antimicrobial [10] |
| --- | --- | --- | --- | --- | --- | --- | --- | --- | --- | --- |
| CC1(C)S[C@@H]2[C@H](NC(=O)[C@H](N)c3ccccc3)C(=O)N2[C@H]1C(=O)O [ampicillin] | resistant | sensitive | – | – | – | – | – | – | – | – |
| CO[C@@]1(NC(=O)Cc2cccs2)C(=O)N2C(C(=O)O)=C(COC(N)=O)CS[C@@H]21 [cefoxitin] | – | – | sensitive | resistant | – | – | – | – | – | – |
| C[C@@H](O)[C@H]1C(=O)N2C(C(=O)O)=C(S[C@@H]3CN[C@H](C(=O)N(C)C)C3)[C@H](C)[C@H]12 [meropenem] | – | – | – | – | resistant | sensitive | sensitive | resistant | resistant | sensitive |
| CN[C@H](CC(C)C)C(=O)N[C@H]1C(=O)N[C@@H](CC(N)=O)C(=O)N[C@H]2C(=O)N[C@H]3C(=O)N[C@H](C(=O)N[C@H](C(=O)O)c4cc(O)cc(O)c4-c4cc3ccc4O)[C@H](O)c3ccc(c(Cl)c3)Oc3cc2cc(c3O[C@@H]2O[C@H](CO)[C@@H](O)[C@H](O)[C@H]2O[C@H]2C[C@](C)(N)[C@H](O)[C@H](C)O2)Oc2ccc(cc2Cl)[C@H]1O [vancomycin] | resistant | sensitive | – | – | – | – | – | – | – | – |
| gentamicin | – | – | – | – | resistant | sensitive | sensitive | resistant | resistant | sensitive |
